This assay concerns the target TNFα (Homo sapiens, UniProt P01375). The assay is described as follows: TNF induced HEK-Blue assay (NF-kB-driven secreted alkaline phosphatase reporter). The assay is classed as cell-based. The settings on record: TNFα 0.5 ng/mL, HEK-Blue-CD40L cells, 18 h. In short, it runs like this:
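HEK-Blue-CD40L cells (NF-kB-driven SEAP reporter), 20,000/well, added after 30 min pre-incubation of compound (0.004–25 μM final) with TNFα 0.5 ng/mL final at 37 °C; 18 h incubation. SEAP read with QUANTI-Blue at 620 nm; IC50 from 4-parameter logistic fit, normalized to unstimulated and stimulated DMSO controls.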

The mark [1] stands for this setting: read-out: TNF induced HEK-Blue assay IC50 value.

Structures are written as SMILES. Like-named read-outs stand apart in the source and are kept apart here.

Sequence of TNFα (P01375 77-233 limits assumed): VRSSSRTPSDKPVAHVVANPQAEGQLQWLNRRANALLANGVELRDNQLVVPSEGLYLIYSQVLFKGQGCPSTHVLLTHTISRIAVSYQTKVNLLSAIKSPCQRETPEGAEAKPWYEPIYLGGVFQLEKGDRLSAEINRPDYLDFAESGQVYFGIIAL

What is called IC50 is the concentration that inhibits the measured activity by half. As for `CC(Nc1c(Cl)cnc2c(Cl)cc(-c3cnn(C)c3)cc12)c1ccccc1F` (racemic) [Example 20, 3,8-dichloro-N-(1-(2-fluorophenyl)ethyl)-6-(1-methyl-1H-pyrazol-4-yl)quinolin-4-amine], the IC50 under setting [1] lay within 10 to 25 µM.

As to `C[C@@H](Nc1c(Cl)cnc2ccccc12)c1cc(-c2ccnc3[nH]ccc23)ccc1F` [Example 525, (R)-3-chloro-N-(1-(2-fluoro-5-(1H-pyrrolo[2,3-b]pyridin-4-yl)phenyl)ethyl) quinolin-4-amine], the IC50 under setting [1] lay within 1 to 10 µM.

With `C[C@@H](Nc1c(Cl)cnc2ccc(-c3cnc(N4CCNC(=O)C4)nc3)cc12)c1ccccc1F` [Example 226, (R)-4-(5-(3-chloro-4-((1-(2-fluorophenyl)ethyl)amino)quinolin-6-yl)pyrimidin-2-yl)piperazin-2-one], the IC50 under setting [1] was under 1 µM.

For the molecule `CC(Nc1c(Cl)cnc2ccc(-c3cnc(C(C)(C)O)nc3)cc12)c1ccc(F)cc1F` (racemic) [Example 163, 2-(5-(3-chloro-4-((1-(2,4-difluorophenyl)ethyl)amino)quinolin-6-yl)pyrimidin-2-yl)propan-2-ol], under setting [1], the IC50 is 1 to 10 µM.

On to `COC(=O)CCS(=O)(=O)c1ccc(F)c([C@@H](C)Nc2c(Cl)cnc3ccc(-c4cnc(C(C)(C)O)nc4)cc23)c1` [Example 427, Methyl (R)-3-((3-(1-((3-chloro-6-(2-(2-hydroxypropan-2-yl)pyrimidin-5-yl)quinolin-4-yl)amino)ethyl)-4-fluorophenyl)sulfonyl)propanoate], for which the IC50 under setting [1] is 1 to 10 µM.

Turning to `C[C@@H](Nc1c(Cl)cnc2ccccc12)c1cc(-c2cnc(N3CCOCC3)nc2)ccc1F` [Example 467, (R)-3-chloro-N-(1-(2-fluoro-5-(2-morpholinopyrimidin-5-yl)phenyl)ethyl)quinolin-4-amine], the IC50 under setting [1] was 1 to 10 µM.

Consider `Cc1nc2ccc(-c3cnc(C(C)(C)O)nc3)cc2c(N[C@H](C)c2cc(CCO)ccc2F)c1Cl` [Example 323, (R)-2-(5-(3-chloro-4-((1-(2-fluoro-5-(2-hydroxyethyl)phenyl)ethyl)amino)-2-methylquinolin-6-yl)pyrimidin-2-yl)propan-2-ol], for which the half-maximal inhibitory concentration (IC50) under setting [1] is under 1 µM.

With `C[C@@H](Nc1c(Cl)cnc2ccc(-c3cnc(C(C)(C)O)nc3)cc12)c1cc(C(=O)N(C)C)ccc1F` [Example 417, (R)-3-(1-((3-chloro-6-(2-(2-hydroxypropan-2-yl)pyrimidin-5-yl)quinolin-4-yl)amino)ethyl)-4-fluoro-N,N-dimethylbenzamide], under setting [1], the concentration for half-maximal inhibition (IC50) is under 1 µM.

Consider `CC(Nc1c(Cl)cnc2cc(F)c(-c3ccc(C(C)(C)O)c(F)c3)cc12)c1ccccc1F` (stereo not shown) [Example 258, 2-(4-(3-chloro-7-fluoro-4-((1-(2-fluorophenyl)ethyl)amino)quinolin-6-yl)-2-fluorophenyl)propan-2-ol], for which the IC50 under setting [1] is 1 to 10 µM.

As for `CC[C@H](Nc1c(Cl)cnc2ccccc12)c1cc(-c2cncnc2)ccc1F` [Example 557, (S)-3-chloro-N-(1-(2-fluoro-5-(pyrimidin-5-yl)phenyl)propyl)quinolin-4-amine], the IC50 under setting [1] lay in the range of 1 to 10 µM.

`C[C@@H](Nc1c(Cl)cnc2ccc(-c3cnc(C4(O)COC4)nc3)cc12)c1ccccc1F` [Example 227, (R)-3-(5-(3-chloro-4-((1-(2-fluorophenyl)ethyl)amino)quinolin-6-yl)pyrimidin-2-yl)oxetan-3-ol]: under setting [1], the IC50 is under 1 µM.

With `Cc1nc2ccc(-c3cnc(C(C)(C)O)nc3)cc2c(N[C@H](C)c2cc(-c3cn[nH]c3)ccc2F)c1Cl` [Example 335, (R)-2-(5-(3-chloro-4-((1-(2-fluoro-5-(1H-pyrazol-4-yl)phenyl)ethyl)amino)-2-methylquinolin-6-yl)pyrimidin-2-yl) propan-2-ol], under setting [1], the IC50 was under 1 µM.

Regarding `C[C@@H](Nc1c(Cl)cnc2ccc(-c3cnc(C(C)(C)O)nc3)cc12)c1cc(C(O)CO)ccc1F` (single isomer, unassigned) [Example 401], under setting [1], the IC50 is under 1 µM.

On to `Cc1nc2cc(F)c(-c3cnc(C(C)(C)O)nc3)nc2c(N[C@H](C)c2cc(C(N)=O)ccc2F)c1Cl` [Example 584, (R)-3-(1-((3-chloro-7-fluoro-6-(2-(2-hydroxypropan-2-yl)pyrimidin-5-yl)-2-methyl-1,5-naphthyridin-4-yl)amino)ethyl)-4-fluorobenzamide], for which, under setting [1], the IC50 is under 1 µM.

On to `CC(=O)NC1CCC(O)(c2ncc(-c3ccc4ncc(Cl)c(N[C@H](C)c5ccccc5F)c4c3)cn2)CC1` (stereo partly drawn) [Example 132, (R)—N-(4-(5-(3-chloro-4-((1-(2-fluorophenyl)ethyl)amino)quinolin-6-yl)pyrimidin-2-yl)-4-hydroxycyclohexyl)acetamide], for which the IC50 under setting [1] lay in the range of 1 to 10 µM.

On to `O=C(O)CC1CN(c2ncc(-c3ccc4ncc(Cl)c(N[C@@H](c5ccccc5F)C(F)F)c4c3)cn2)CCN1` (mixture of isomers) [Example 77, 2-(4-(5-(3-chloro-4-(((S)-2,2-difluoro-1-(2-fluorophenyl)ethyl)amino)quinolin-6-yl)pyrimidin-2-yl)piperazin-2-yl) acetic acid], for which, under setting [1], the IC50 is under 1 µM.

For `NC1(C(=O)O)CCN(c2ncc(-c3ccc4ncc(Cl)c(N[C@@H](c5ccccc5F)C(F)F)c4c3)cn2)CC1` [Example 75, (S)-4-amino-1-(5-(3-chloro-4-((2,2-difluoro-1-(2-fluorophenyl)ethyl)amino)quinolin-6-yl)pyrimidin-2-yl)piperidine-4-carboxylic acid], under setting [1], the IC50 is under 1 µM.

Regarding `Cc1ccc(C)c(Nc2c(F)c(C)nc3ccc(-c4cnc(N5CCN(CC(=O)O)CC5)nc4)cc23)c1` [Example 187, 2-(4-(5-(4-((2,5-dimethylphenyl)amino)-3-fluoro-2-methylquinolin-6-yl)pyrimidin-2-yl)piperazin-1-yl)acetic acid], the IC50 under setting [1] is under 1 µM.

As to `C[C@@H](Nc1c(Cl)cnc2ccc(-c3cnc(C(C)(C)O)nc3)cc12)c1cc(-c2cncnc2)ccc1F` [Example 340, (R)-2-(5-(3-chloro-4-((1-(2-fluoro-5-(pyrimidin-5-yl)phenyl)ethyl)amino)quinolin-6-yl)pyrimidin-2-yl) propan-2-ol], under setting [1], the IC50 is under 1 µM.

For `C[C@@H](Nc1c(Cl)cnc2ccccc12)c1cc(-c2ccccc2N)ccc1F` [Example 547, (R)—N-(1-(2′-amino-4-fluoro-[1,1′-biphenyl]-3-yl)ethyl)-3-chloroquinolin-4-amine], the IC50 under setting [1] fell in the range of 1 to 10 µM.

On to `CC(Nc1c(Cl)cnc2cc(F)c(-c3cnc(N4CCC(CC(=O)O)CC4)nc3)cc12)c1ccccc1F` (racemic) [Example 266, 2-(1-(5-(3-chloro-7-fluoro-4-((1-(2-fluorophenyl)ethyl)amino)quinolin-6-yl)pyrimidin-2-yl)piperidin-4-yl)acetic acid], for which the IC50 under setting [1] was under 1 µM.

For the molecule `Cc1nc2cc(F)c(-c3cnc(C(C)(C)O)nc3)cc2c(N[C@H](C)c2cc(OCCO)ccc2F)c1Cl` [Example 324, (R)-2-(5-(3-chloro-7-fluoro-4-((1-(2-fluoro-5-(2-hydroxyethoxy)phenyl)ethyl)amino)-2-methylquinolin-6-yl)pyrimidin-2-yl)propan-2-ol], the IC50 under setting [1] was under 1 µM.

On to `Cc1nc2ccc(-c3cnc(C(C)(C)O)nc3)cc2c(N[C@H](C)c2cc(N)ccc2F)c1Cl` [Example 360, (R)-2-(5-(4-((1-(5-amino-2-fluorophenyl)ethyl)amino)-3-chloro-2-methylquinolin-6-yl)pyrimidin-2-yl)propan-2-ol], for which the IC50 under setting [1] was under 1 µM.

In the case of `C[C@@H](Nc1c(Cl)cnc2cnc(-c3cnc(N4CCN(CC(=O)O)CC4)nc3)cc12)c1ccccc1F` (single isomer, unassigned) [Example 235], under setting [1], the IC50 lay in the range of 10 to 25 µM.

As for `CC(C)(O)c1ncc(-c2nc3c(N[C@H](c4cc(C(N)=O)ccc4F)C(F)F)c(Cl)cnc3cc2F)cn1` [Example 487, (R)-3-(1-((3-chloro-7-fluoro-6-(2-(2-hydroxypropan-2-yl)pyrimidin-5-yl)-1,5-naphthyridin-4-yl)amino)-2,2-difluoroethyl)-4-fluorobenzamide], the IC50 under setting [1] is under 1 µM.

Consider `Cc1nc2cc(F)c(-c3cnc(C(C)(C)O)nc3)cc2c(N[C@H](C)c2cc(CCO)ccc2F)c1Cl` [Example 325, (R)-2-(5-(3-chloro-7-fluoro-4-((1-(2-fluoro-5-(2-hydroxyethyl)phenyl)ethyl)amino)-2-methylquinolin-6-yl)pyrimidin-2-yl) propan-2-ol], for which the IC50 under setting [1] is under 1 µM.

Regarding `Cc1nc2ncccc2c(N[C@H](C)c2cc(-c3cncnc3)ccc2F)c1Cl` [Example 556, (R)-3-chloro-N-(1-(2-fluoro-5-(pyrimidin-5-yl)phenyl)ethyl)-2-methyl-1,8-naphthyridin-4-amine], the IC50 under setting [1] fell in the range of 10 to 25 µM.

Consider `CN(Nc1c(Cl)cnc2ccc(-c3cnc(C(C)(C)O)nc3)cc12)c1ccccc1` [Example 54, 2-(5-(3-chloro-4-(2-methyl-2-phenylhydrazinyl)quinolin-6-yl)pyrimidin-2-yl)propan-2-ol], for which the IC50 under setting [1] was under 1 µM.

For the molecule `C[C@@H](Nc1c(Cl)cnc2ccc(-c3cnc(C(C)(C)O)nc3)cc12)c1ccccc1` [Example 154, (R)-2-(5-(3-chloro-4-((1-phenylethyl)amino)quinolin-6-yl)pyrimidin-2-yl)propan-2-ol], the IC50 (TNF induced HEK-Blue assay IC50 value) was under 1 µM.

`Cc1ccc(C)c(Nc2c(Cl)c(C)nc3ccc(-c4ccc(CN5CCN(C(=O)OC(C)(C)C)CC5)cc4)cc23)c1` [Example 6, tert-butyl 4-(4-(3-chloro-4-((2,5-dimethylphenyl)amino)-2-methylquinolin-6-yl)benzyl)piperazine-1-carboxylate]: the IC50 under setting [1] fell in the range of 1 to 10 µM.

`C[C@H](Nc1c(Cl)cnc2ccc(-c3cnc(C(C)(C)O)nc3)cc12)[C@H]1CCCN(C(=O)c2cn[nH]c2)C1` [Example 565, ((S)-3-((S)-1-((3-chloro-6-(2-(2-hydroxypropan-2-yl)pyrimidin-5-yl)quinolin-4-yl)amino)ethyl)piperidin-1-yl)(1H-pyrazol-4-yl)methanone]: under setting [1], the IC50 lay within 10 to 25 µM.

(Values after patent US10865191B2, “Heterocyclic compounds useful as modulators of TNF alpha” (BRISTOL-MYERS SQUIBB COMPANY, priority 2015, dated 2020).)
